From publication PMC10818308, “Phytochemicals from Pterocarpus angolensis DC and Their Cytotoxic Activities against Breast Cancer Cells” (Plants, 2024)
Values after ≈ are worked out from the molar mass of the structure shown.

Assays:
[1] = tested on: 2E1 human liver microsomal; set-up: method as in PMID 30122094; conditions: read-out: inhibition of 2E1; cited from earlier work
[2] = tested on: CYP3A4; set-up: method as in PMID 30122094; conditions: read-out: inhibition of CYP3A4; cited from earlier work
[3] = tested on: MCF-7; set-up: method as in PMID 28619518; conditions: 48 h; read-out: activity against MCF-7; cited from earlier work
[4] = tested on: triple-negative breast cancer (HCC70) cell line; experiment: Resazurin cytotoxicity assay, HCC70; assay type: cell-based; conditions: for IC50 (µM) HCC70 / IC50: HCC70 cells, 96 h treatment, resazurin; for SI (Selectivity Index), IC50 of MCF-12A/IC50 of HCC70: HCC70 versus MCF-12A; for IC50: Homo sapiens
Protocol: (§1) The cytotoxicity of the pure compounds was evaluated using the in vitro cell culture against triple-negative breast cancer (HCC70) cell lines, hormone receptor-positive breast cancer (MCF-7), and non-tumorigenic epithelial cell lines derived from breast tissue (MCF-12A). A compound’s ability to inhibit a particular biochemical function is determined by its half-maximum inhibitory concentration (IC50). Etoposide was used as the positive control.
(§2) The cell viability after treatment with the isolated pure compounds of P. angolensis was analyzed using the resazurin assay in commercially available established cell lines purchased from the American Type Culture Collection. Triple-negative breast cancer cell line (HCC70) (estrogen receptor (ER)^−, progesterone receptor (PR), (HER-2)^−, (ATCC-CRL-2315)), hormone receptor-positive (ER^+, PR ^+, HER-2) breast cancer cell line (MCF-7) (ATCC: HTB-22), and non-tumorigenic breast epithelial cell line (MCF-12A) (ATCC: CRL-10782, a kind gift from Anna-Mart Engelbrecht, Stellenbosch University, Stellenbosch, South Africa) were maintained in culture in a 9% CO2 incubator at 37 °C. The HCC70 cell line was cultured in RPMI-1640 media (Gibco, Trenton, MI, USA) supplemented with 10% (v/v) fetal bovine serum (FBS) (BioWest, Nuaillé, France), 1% (v/v) 100 U/mL penicillin, streptomycin, and amphotericin (PSA) (Lonza, Basel, Switzerland), 1% (v/v) GlutaMAX^TM (Gibco) and 0.25% (v/v) sodium bicarbonate (Gibco). The MCF-7 cell line cell was cultured in Dulbecco’s Modified Eagles Medium (DMEM) (Gibco) supplemented with 10% (v/v) FBS, 1% (v/v) PSA and 1% (v/v) GlutaMAX^TM. The MCF-12A cell line was cultured in DMEM/Ham’s F-12 (BioWest) supplemented with 10% (v/v) FBS, 1% (v/v) PSA, 20 ng/mL human epidermal growth factor (Sigma, St. Louis, MO, USA), 100 ng/mL cholera toxin (Sigma), 500 ng/mL hydrocortisone (Abcam, Cambridge, UK) and 10 μg/mL insulin (Novo Nordisk, Bagsværd, Denmark). All cells were seeded into 96-well plates at a density of 5000 cells per well and allowed to adhere for the night in a 9% CO2 incubator at 37 °C. The cells were subsequently treated for 96 h at 37 °C in an incubator with 9 percent CO2 with the isolated compounds with […] at concentrations ranging from 15.63 to 500.00 μM or with 0.2% (v/v) DMSO (Sigma) as a vehicle control. Thereafter, 0.54 nM of resazurin (Glentham Life Sciences, Corsham, UK) solution was added, and cells were then cultured for two to four hours at 37 °C in an incubator with 9% CO2. A Spectramax spectrophotometer (Molecular Devices, Sunnyvale, CA, USA) was used to measure the fluorescence of the resulting solutions. The excitation and emission wavelengths were set at […], respectively. The experiment was repeated in technical triplicate, and the data were analyzed using GraphPad Prism (Boston, MA, USA). […] The selectivity index (SI) value of each compound was calculated as the ratio of IC50 of MCF-12A/IC50 of HCC70 or MFC-7 of the same compound, where an SI > 1 implies toxicity that is preferentially toxic to cancer cells compared to non-cancerous cells.

[5] = tested on: hormone receptor-positive breast cancer cell line (MCF-7); experiment: Resazurin cytotoxicity assay, MCF-7; assay type: cell-based; conditions: for IC50: Homo sapiens, MCF7; for SI (Selectivity Index), IC50 of MCF-12A/IC50 of MCF-7: MCF-7 versus MCF-12A
[6] = tested on: non-tumorigenic breast epithelial cell line (MCF-12A); experiment: Resazurin cytotoxicity assay, MCF-12A; assay type: cell-based; conditions: Homo sapiens, MCF-12A cells, 96 h treatment, read-out: IC50 (µM) MCF12A
Protocol: as §1, §2

[7] = tested on: Lactuca sativa seeds; set-up: method as in PMID 19127726; conditions: cited from earlier work
[8] = tested on: insect-derived sf9; set-up: method as in PMID 19127726; conditions: cited from earlier work
[9] = tested on: glioblastoma U87MG.EGFR cells, CEM/ADR5000 leukemia cells; set-up: method as in earlier work; conditions: read-out: IC50 cytotoxicity; cited from earlier work
[10] = tested on: CCRF-CEM cells; set-up: method as in earlier work; conditions: read-out: IC50 cytotoxicity; cited from earlier work
[11] = tested on: HeLa cervical cancer cells; set-up: method as in doi:10.15408/jkv.v1i1.20068; conditions: read-out: IC50 cytotoxicity; cited from earlier work
[12] = tested on: oral epithelial carcinoma cells (KB/C152); set-up: method as in PMID 32334461; conditions: cited from earlier work
[13] = tested on: human endometrial carcinoma cell line HEC-1A; set-up: method as in PMID 32095097; conditions: HEC-1A cells; read-out: IC50 cytotoxicity; cited from earlier work
[14] = tested on: human ovarian cancer cell line, SKOV3; set-up: method as in PMID 32095097; conditions: SKOV3 cells; read-out: IC50 cytotoxicity; cited from earlier work
[15] = tested on: Staphylococcus aureus; set-up: method as in PMID 19583913; conditions: cited from earlier work
[16] = tested on: Acinetobacter calcaoceuticus; set-up: method as in PMID 19583913; conditions: cited from earlier work
[17] = tested on: Kocuria kristinae; set-up: method as in PMID 19583913; conditions: cited from earlier work
[18] = tested on: Staphylococcus typhi; set-up: method as in PMID 19583913; conditions: cited from earlier work
[19] = MCF-7 cells, 96 h treatment, resazurin

Row | Molecule | IC50 [6] | IC50 [5, 19] | SI (Selectivity Index), IC50 of MCF-12A/IC50 of MCF-7 [5] | SI (Selectivity Index), IC50 of MCF-12A/IC50 of HCC70 [4] | IC50 [4] | also measured
1 | C[C@H]1C(=O)CC[C@@H]2[C@]1(C)CC[C@H]1[C@@]2(C)CC[C@@]2(C)[C@@H]3CC(C)(C)CC[C@]3(C)CC[C@]12C [Compound 1, friedelan-3-one] | 43.9 µM | – | – | – | – | IC50 [1]: 22.5 µM; IC50 [2]: 10.8 µM; IC50 [3]: 1.2 µM; IC50 (µM) HCC70 [4]: Non-Toxic; IC50 (µM) MCF7 [5, 19]: Non-Toxic
2 | C[C@H]1C(O)C(=O)CC2[C@]3(C)CC[C@@]4(C)C5CC(C)(C)CC[C@]5(C)CC[C@]4(C)C3CC[C@@]21C (stereo partly drawn) [Compound 2, 3α-hydroxyfriedel-2-one] | 84.2 µM | 157 µM | 0.53 | – | – | phytotoxicity against germination [7]: no phytotoxicity; IC50 (µM) HCC70 [4]: Non-Toxic; cytotoxicity effect on sf9 [8]: 8.32 µg/mL
3 | CC1=C(O)C(=O)CC2[C@]3(C)CC[C@@]4(C)C5CC(C)(C)CC[C@]5(C)CC[C@]4(C)C3CC[C@]12C (some centres unmarked) [Compound 3, 3-hydroxyfriedel-3-en-2-one] | 136 µM | 101 µM | 1.35 | 0.93 | 146 µM | melting point: 265 to 268 °C
4 | C=C(C)[C@@H]1CC[C@]2(C)CC[C@]3(C)[C@H](CC[C@@H]4[C@@]5(C)CC[C@H](O)C(C)(C)[C@@H]5CC[C@]43C)[C@@H]12 [Compound 4, lup-20(29)-en-3-ol] | 36.6 µM | 149 µM | 0.25 | – | – | IC50 [9]: 13.6 to 69.4 µM; IC50 (µM) HCC70 [4]: Non-Toxic; IC50 [10]: 0.02 to 66.8 µM
5 | CC[C@H](/C=C/[C@@H](C)[C@H]1CC[C@H]2[C@@H]3CC=C4C[C@@H](O)CC[C@]4(C)[C@H]3CC[C@]12C)C(C)C [Compound 5, Stigmasta-5-22-dien-3-ol] | 44.1 µM | 227 µM | 0.19 | 0.40 | 109 µM | IC50 [11]: 26.4 µM; IC50 cytotoxicity [12]: 81.18 µg/mL (≈ 197 µM)
6 | COc1ccc(C(C)C(=O)c2ccc(OC)cc2O)cc1 (centres unmarked) [Compound 6, 4-O-methylangolensis] | 148 µM | 77.5 µM | 1.91 | 1.32 | 111 µM | melting point: 70 to 71 °C
7 | CC(=O)OC1CCC2(C)C(CCC3(C)C2CC=C2C4CC(C)(C)CCC4(C(=O)O)CCC23C)C1(C)C (stereo not drawn) [Compound 7, (3β)-3-acetoxyolean-12-en-28-oic acid] | 143 µM | 83.1 µM | 1.72 | 0.97 | 147 µM | IC50 [13]: 0.8 µM; IC50 [14]: 8.3 µM
8 | CCCCCCCCCCCCCCOC(=O)/C=C/c1ccc(O)c(OC)c1 [Compound 8, tetradecyl (E)-ferulate] | 6.95 µM | 223 µM | 0.03 | 0.05 | 128 µM | melting point: 68 to 70 °C
9 | COc1cc([C@@H]2c3cc4c(cc3[C@@H](O[C@@H]3O[C@@H]5CO[C@@H](C)O[C@H]5[C@H](O)[C@H]3O)[C@H]3COC(=O)[C@H]23)OCO4)cc(OC)c1O [Etoposide, reference compound] | 10.9 µM | – | – | – | 44.8 µM | –
10 | epicatechin-3-O-gallate | – | – | – | – | – | minimum inhibition concentration (MIC) [15]: 50 µg/mL; minimum inhibition concentration (MIC) [16]: 50 µg/mL
11 | hexamer of epicatechin | – | – | – | – | – | minimum inhibition concentration (MIC) [17]: 25 µg/mL; minimum inhibition concentration (MIC) [18]: 25 µg/mL
